pIC50: −log10 of the molar value. “And” between values parts separate entries of the source, which are not always exact repeats. Equal values may be shown once. Read-outs that look alike come from different tables or passages of the source.
Assays:
[1] = tested on: differentiated PC-12 Adh cells; experiment: WST-1 cell viability assay for non-cytotoxic concentrations; type: cell-based, rat; conditions: for IC50: 24 h treatment, WST-1
Experimental: (§1) PC-12 Adh cells were cultured in 10% horse serum, 5% fetal bovine serum, and 1% penicillin-streptomycin containing DMEM growth medium, at 37 °C in a humidified incubator with 5% CO2. The proliferating cells were passaged 1:2 to new 25 and/or 75 cm^2 flasks and cell stocks were prepared in order to use in future experiments. In order to induce PC-12 Adh cell differentiation into neuronal phenotype, growth medium was changed with 1% fetal bovine serum, 1% penicillin-streptomycin and 100 nM NGF containing DMEM differentiation medium.
Differentiated PC-12 Adh cells were stained with Trypan blue solution and counted by a cell counter device (Cedex XS, Innovatis, Malvern, PA, USA) in order to determine the appropriate cell numbers before the experiments.
In order to obtain non-cytotoxic concentrations of the compounds, the viability of neuronal cells was measured by using 2-(4-iodophenyl)-3-(4-nitrophenyl)-5-(2,4-disulfophenyl)-2H-tetrazolium sodium salt (WST-1) assay (Roche, Mannheim, Germany). The test is based on the cleavage of the tetrazolium salt WST-1 in formazan by mitochondrial dehydrogenases in viable cells. The formazan dye was quantified in a scanning multiwell spectrophotometer by measuring the absorbance of the dye at 420 nm. The differentiated PC-12 Adh cells were scratched and plated onto 96-well culture plates at 5 × 10^3 density per well. […] After the incubation period, the cell proliferation reagent WST-1 (10 μL per well) was added to the wells; and absorbances were measured after 3 h using a Cytation 3 cell imaging multi-mode reader at 420 nm (BioTek, Winooski, VT, USA). The measured absorbances directly correlated to the number of viable cells.

[2] = tested on: differentiated PC-12 Adh cells; experiment: Neuroprotective activity against 6-OHDA-induced neurotoxicity (WST-1 cell viability); type: cell-based, rat; conditions: for induction in cell viability percentage compared with the 6-OHDA-positive control group (statistical analysis): 100 µg/mL, one-way ANOVA and Tukey’s post hoc test, ** p < 0.01
Experimental: as §1
(§2) The differentiated PC-12 Adh cells were scratched and plated onto 96-well culture plates at 5 × 10^3 density per well. […] After 24 h, the neuroprotective effects of the compounds were determined by WST-1 cell viability assay as explained above. The graphics were drawn according to the cell viability, which was expressed as percentage of the surviving control cells in the study.
(§3) The graphics were drawn with Graphpad Prism 6.0 software and statistically analyzed using one-way ANOVA and Tukey’s post hoc test.

[3] = Neuroprotective activity against 6-OHDA-induced neurotoxicity (WST-1 cell viability); type: cell-based, rat; conditions: rat, 150 µM 6-OHDA alone for 24 h (positive control); % of the control
Experimental: as §1, §2, §3

[4] = Rattus norvegicus, differentiated PC-12 Adh cells, read-out: IC50 (cell viability assay)
[5] = 100 µg/mL compound for 6 h, then 150 µM 6-OHDA for 24 h

Row | Compound | IC50 [1, 4] [µg/mL] | further results
1 | Cc1ccc(C2CC(c3ccco3)=NN2c2ccc(C)cc2)cc1 (centres unmarked) [Compound 3f, 1-(4-Methylphenyl)-3-(2-furanyl)-5-(4-methylphenyl)-2-pyrazoline] | > 400 | –
2 | Cc1ccc(C2CC(c3ccco3)=NN2c2ccc(S(C)(=O)=O)cc2)cc1 (centres unmarked) [Compound 3h, 1-(4-Methylsulfonylphenyl)-3-(2-furanyl)-5-(4-methylphenyl)-2-pyrazoline] | > 400 | reduction in cell viability [2, 5]: 20%; induction in cell viability percentage compared with the 6-OHDA-positive control group (statistical analysis) [2]: significant
3 | Fc1ccc(N2N=C(c3cccs3)CC2c2ccc3c(c2)OCO3)cc1 (centres unmarked) [Compound 4c, 1-(4-Fluorophenyl)-3-(2-thienyl)-5-(1,3-benzodioxol-5-yl)-2-pyrazoline] | > 400 | –
4 | COc1ccc(N2N=C(c3cccs3)CC2c2ccc3c(c2)OCO3)cc1 (centres unmarked) [Compound 4g, 1-(4-Methoxyphenyl)-3-(2-thienyl)-5-(1,3-benzodioxol-5-yl)-2-pyrazoline] | 252 | –
5 | CS(=O)(=O)c1ccc(N2N=C(c3cccs3)CC2c2ccc3c(c2)OCO3)cc1 (centres unmarked) [Compound 4h, 1-(4-Methylsulfonylphenyl)-3-(2-thienyl)-5-(1,3-benzodioxol-5-yl)-2-pyrazoline] | > 400 | reduction in cell viability [2, 5]: 23%; induction in cell viability percentage compared with the 6-OHDA-positive control group (statistical analysis) [2]: significant
6 | c1ccc(N2N=C(c3cccs3)CC2c2ccc3c(c2)OCO3)cc1 (centres unmarked) [Compound 4a, 1-Phenyl-3-(2-thienyl)-5-(1,3-benzodioxol-5-yl)-2-pyrazoline] | > 400 | –
7 | Cc1ccc(C2CC(c3ccco3)=NN2c2ccc(Br)cc2)cc1 (centres unmarked) [Compound 3e, 1-(4-Bromophenyl)-3-(2-furanyl)-5-(4-methylphenyl)-2-pyrazoline] | 398 | –
8 | Brc1ccc(N2N=C(c3cccs3)CC2c2ccc3c(c2)OCO3)cc1 (centres unmarked) [Compound 4e, 1-(4-Bromophenyl)-3-(2-thienyl)-5-(1,3-benzodioxol-5-yl)-2-pyrazoline] | > 400 | –
9 | Cc1ccc(/C=C/C(=O)c2ccco2)cc1 [Compound 1, 1-(2-Furanyl)-3-aryl-2-propen-1-one] | 12 | cytotoxicity (effect on cell viability, in words) ([1]; differentiated PC-12 Adh cells, 100 µg/mL): highly cytotoxic; melting point: 111 to 113 °C; reduction in cell viability ([2]; 10 µg/mL compound for 6 h, then 150 µM 6-OHDA for 24 h): 40%; reduction in cell viability [2, 5]: 97%
10 | NCCc1cc(O)c(O)cc1O [Compound 6-OHDA, 6-hydroxydopamine] | – | pIC50 ([1]; Rattus norvegicus, PC-12, 24 h, read-out: IC50 (cell viability assay)): 3.82; reduction in cell viability ([2]; 150 µM 6-OHDA alone for 24 h (positive control)): 42.13% and 43% and 42%; viability at 24 h, 150 µM [3]: 57%
11 | Cc1ccc(C2CC(c3ccco3)=NN2c2ccc(F)cc2)cc1 (centres unmarked) [Compound 3c, 1-(4-Fluorophenyl)-3-(2-furanyl)-5-(4-methylphenyl)-2-pyrazoline] | 353 | –
12 | COc1ccc(N2N=C(c3ccco3)CC2c2ccc(C)cc2)cc1 (centres unmarked) [Compound 3g, 1-(4-Methoxyphenyl)-3-(2-furanyl)-5-(4-methylphenyl)-2-pyrazoline] | > 400 | –
13 | Cc1ccc(C2CC(c3ccco3)=NN2c2ccc(Cl)cc2)cc1 (centres unmarked) [Compound 3d, 1-(4-Chlorophenyl)-3-(2-furanyl)-5-(4-methylphenyl)-2-pyrazoline] | > 400 | –
14 | Cc1ccc(N2N=C(c3cccs3)CC2c2ccc3c(c2)OCO3)cc1 (centres unmarked) [Compound 4f, 1-(4-Methylphenyl)-3-(2-thienyl)-5-(1,3-benzodioxol-5-yl)-2-pyrazoline] | 239 | –
15 | Clc1ccc(N2N=C(c3cccs3)CC2c2ccc3c(c2)OCO3)cc1 (centres unmarked) [Compound 4d, 1-(4-Chlorophenyl)-3-(2-thienyl)-5-(1,3-benzodioxol-5-yl)-2-pyrazoline] | > 400 | –
16 | Cc1ccc(C2CC(c3ccco3)=NN2c2ccccc2)cc1 (centres unmarked) [Compound 3a, 1-Phenyl-3-(2-furanyl)-5-(4-methylphenyl)-2-pyrazoline] | > 400 | –
17 | Cc1ccc(C2CC(c3ccco3)=NN2c2ccc(C#N)cc2)cc1 (centres unmarked) [Compound 3b, 1-(4-Cyanophenyl)-3-(2-furanyl)-5-(4-methylphenyl)-2-pyrazoline] | 204 | –
18 | O=C(/C=C/c1ccc2c(c1)OCO2)c1cccs1 [Compound 2, 1-(2-Thienyl)-3-aryl-2-propen-1-one] | 345 | reduction in cell viability [2, 5]: 34.1%
19 | Cc1ccc(C2CC(c3ccco3)=NN2c2ccc(S(N)(=O)=O)cc2)cc1 (centres unmarked) [Compound 3i, 1-(4-Sulfonamidophenyl)-3-(2-furanyl)-5-(4-methylphenyl)-2-pyrazoline] | 205 | –
20 | NS(=O)(=O)c1ccc(N2N=C(c3cccs3)CC2c2ccc3c(c2)OCO3)cc1 (centres unmarked) [Compound 4i, 1-(4-Sulfonamidophenyl)-3-(2-thienyl)-5-(1,3-benzodioxol-5-yl)-2-pyrazoline] | > 400 | –
21 | N#Cc1ccc(N2N=C(c3cccs3)CC2c2ccc3c(c2)OCO3)cc1 (centres unmarked) [Compound 4b, 1-(4-Cyanophenyl)-3-(2-thienyl)-5-(1,3-benzodioxol-5-yl)-2-pyrazoline] | > 400 | –

From PMC6225304, “Design, Synthesis, and Neuroprotective Effects of a Series of Pyrazolines against 6-Hydroxydopamine-Induced Oxidative Stress” (Molecules : A Journal of Synthetic Chemistry and Natural …, 2018)
